# Several values for one entry are separate records, joined by “and”; a condition that tells them apart may be missing. Identical values can stand only once.
# Assays:
# Conditions in all cases: incubation time: 72 h
# BT-474 [1] = assay: drug sensitivity score (DSS), CellTox Green (DSS (AUC-based score)); higher = stronger drug effect (viability inhibition or cytotoxicity); extreme values may be limits of the assay
# Method in brief: (§1)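 Breast cancer cell lines were seeded in 20 µl suspension into 384-well plates already holding compound and incubated for 72 h. Each compound was tested at 5 concentrations in 10-fold steps across its own 10,000-fold range. Plates were normalised to 0.1 % DMSO and a positive kill control after CellTox Green and then CellTiter-Glo readings. The area under the fitted dose-response curve served as the basis for the drug sensitivity score.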
# CAL-120 [2] = assay: as above
# Method in brief: as §1
# CAL-148 [3] = assay: as above
# Method in brief: as §1
# CAL-85-1 [4] = assay: as above
# Method in brief: as §1
# HCC1143 [5] = assay: as above
# Method in brief: as §1
# HCC1937 [6] = assay: as above
# Method in brief: as §1
# MCF-10A = assay: as above
# Method in brief: as §1
# MDA-MB-231 [7] = assay: as above
# Method in brief: as §1
# MDA-MB-453 [8] = assay: as above
# Method in brief: as §1
# MFM-223 [9] = assay: as above
# Method in brief: as §1
# BT-474 [10] = assay: normalised viability (% of control), CellTiter-Blue; higher = more viable cells (about 100 = DMSO control)
# Procedure: (§2)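 DSRT, CellTiter-Blue viability, 72 h incubation. Signal is normalised to DMSO and benzethonium chloride controls. Value is the normalised response at dose 3.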
# BT-549 = assay: as above
# Procedure: as §2
# CAL-120 [11] = assay: as above
# Procedure: as §2
# CAL-148 [12] = assay: as above
# Procedure: as §2
# CAL-51 = assay: as above
# Procedure: as §2
# CAL-85-1 [13] = assay: as above
# Procedure: as §2
# DU-4475 = assay: as above
# Procedure: as §2
# HCC1143 [14] = assay: as above
# Procedure: as §2
# HCC1599 = assay: as above
# Procedure: as §2
# HCC1937 [15] = assay: as above
# Procedure: as §2
# HDQ-P1 = assay: as above
# Procedure: as §2
# Hs578T = assay: as above
# Procedure: as §2
# MDA-MB-231 [16] = assay: as above
# Procedure: as §2
# MDA-MB-436 = assay: as above
# Procedure: as §2
# MDA-MB-453 [17] = assay: as above
# Procedure: as §2
# MDA-MB-468 = assay: as above
# Procedure: as §2
# MFM-223 [18] = assay: as above
# Procedure: as §2
# SK-BR-3 = assay: as above
# Procedure: as §2
structure (smiles),measurement,setting,value
CCOC(=O)CCNc1cc(N2CCc3ccccc3CC2)nc(-c2ccccn2)n1 [GSK-J4],drug sensitivity score,BT-474 [1],19
same,drug sensitivity score,CAL-120 [2],8.01
same,drug sensitivity score,CAL-148 [3],10.9
same,drug sensitivity score,CAL-85-1 [4],16.5
same,drug sensitivity score,HCC1143 [5],18.6
same,drug sensitivity score,HCC1937 [6],7.05
same,drug sensitivity score,MCF-10A,8.52
same,drug sensitivity score,MDA-MB-231 [7],11.1
same,drug sensitivity score,MDA-MB-453 [8],7.34
same,drug sensitivity score,MFM-223 [9],8.73
Cc1cc(Nc2cc(CN3CCOCC3)c3nc(C)c(Cc4ccc(Cl)cc4F)n3n2)n[nH]1 [Gandotinib],drug sensitivity score,BT-474 [1],0
same,drug sensitivity score,CAL-120 [2],0
same,drug sensitivity score,CAL-148 [3],0
same,drug sensitivity score,CAL-85-1 [4],3.97
same,drug sensitivity score,HCC1143 [5],0
same,drug sensitivity score,HCC1937 [6],0
same,drug sensitivity score,MCF-10A,0
same,drug sensitivity score,MDA-MB-231 [7],0
same,drug sensitivity score,MDA-MB-453 [8],0
same,drug sensitivity score,MFM-223 [9],0
COc1cc2ncnc(Nc3ccc(F)c(Cl)c3)c2cc1OCCCN1CCOCC1 [Gefitinib],normalised viability,BT-474 [10]; 100 nM,92.3% and 101%
same,normalised viability,BT-549; 100 nM,108%
same,normalised viability,CAL-120 [11]; 100 nM,81.9% and 92.8%
same,normalised viability,CAL-148 [12]; 10 nM,84.8% and 87.6%
same,normalised viability,CAL-51; 10 nM,107%
same,normalised viability,CAL-85-1 [13]; 10 nM,94.2% and 95.5%
same,normalised viability,DU-4475; 10 nM,108% and 93.9%
same,normalised viability,HCC1143 [14]; 100 nM,63% and 86.8%
same,normalised viability,HCC1599; 100 nM,102% and 113%
same,normalised viability,HCC1937 [15]; 100 nM,102% and 92%
same,normalised viability,HDQ-P1; 10 nM,103% and 100%
same,normalised viability,Hs578T; 100 nM,86.3% and 99.7%
same,normalised viability,MDA-MB-231 [16]; 100 nM,93.9% and 97%
same,normalised viability,MDA-MB-436; 100 nM,89.9% and 93.7%
same,normalised viability,MDA-MB-453 [17]; 10 nM,96.9%
same,normalised viability,MDA-MB-468; 100 nM,81.7% and 89.3%
same,normalised viability,MFM-223 [18]; 100 nM,98.7% and 89.5%
same,normalised viability,SK-BR-3; 100 nM,80.9% and 72.1%
same,drug sensitivity score,CAL-120 [2],0
same,drug sensitivity score,CAL-148 [3],2.34
same,drug sensitivity score,CAL-85-1 [4],4.48
same,drug sensitivity score,HCC1143 [5],0
same,drug sensitivity score,HCC1937 [6],0
same,drug sensitivity score,MCF-10A,0
same,drug sensitivity score,MDA-MB-231 [7],0.542
same,drug sensitivity score,MDA-MB-453 [8],0
same,drug sensitivity score,MFM-223 [9],0
CCc1c2c(nc3ccc(OC(=O)N4CCC(N5CCCCC5)CC4)cc13)-c1cc3c(c(=O)n1C2)COC(=O)[C@]3(O)CC [Irinotecan],normalised viability,BT-474 [10]; 100 nM,110% and 106%
same,normalised viability,BT-549; 100 nM,91.5% and 90%
same,normalised viability,CAL-148 [12]; 10 nM,86% and 102%
same,normalised viability,CAL-51; 10 nM,99.2% and 118%
same,normalised viability,CAL-85-1 [13]; 10 nM,90.9% and 99.3%
same,normalised viability,DU-4475; 10 nM,115% and 123%
same,normalised viability,HCC1143 [14]; 100 nM,89.1% and 112%
same,normalised viability,HCC1937 [15]; 100 nM,93.2% and 84.8%
same,normalised viability,HDQ-P1; 10 nM,102% and 126%
same,normalised viability,Hs578T; 100 nM,97.9% and 90.4%
same,normalised viability,MDA-MB-231 [16]; 100 nM,90.9% and 103%
same,normalised viability,MDA-MB-436; 100 nM,89.2% and 99.7%
same,normalised viability,MDA-MB-453 [17]; 10 nM,102% and 115%
same,normalised viability,MDA-MB-468; 100 nM,102% and 108%
same,normalised viability,MFM-223 [18]; 100 nM,93.8% and 94.5%
same,normalised viability,SK-BR-3; 100 nM,80.2% and 85.2%
same,drug sensitivity score,BT-474 [1],0
same,drug sensitivity score,CAL-120 [2],0.997
same,drug sensitivity score,CAL-148 [3],11.8
same,drug sensitivity score,CAL-85-1 [4],0
same,drug sensitivity score,HCC1143 [5],0
same,drug sensitivity score,HCC1937 [6],0
same,drug sensitivity score,MCF-10A,0
same,drug sensitivity score,MDA-MB-231 [7],0
same,drug sensitivity score,MDA-MB-453 [8],0
same,drug sensitivity score,MFM-223 [9],0
COC(=O)c1ccc2c(c1)NC(=O)/C2=C(\Nc1ccc(N(C)C(=O)CN2CCN(C)CC2)cc1)c1ccccc1 [Nintedanib],drug sensitivity score,BT-474 [1],6.74
same,drug sensitivity score,CAL-120 [2],0
same,drug sensitivity score,CAL-148 [3],0
same,drug sensitivity score,CAL-85-1 [4],0
same,drug sensitivity score,HCC1143 [5],0
same,drug sensitivity score,HCC1937 [6],7.85
same,drug sensitivity score,MCF-10A,1.89
same,drug sensitivity score,MDA-MB-231 [7],7.47
same,drug sensitivity score,MDA-MB-453 [8],0
same,drug sensitivity score,MFM-223 [9],0
CNC(=O)c1ccc(N2C(=S)N(c3ccc(C#N)c(C(F)(F)F)c3)C(=O)C23CCC3)cc1F [RD162],drug sensitivity score,BT-474 [1],0
same,drug sensitivity score,CAL-120 [2],0
same,drug sensitivity score,CAL-148 [3],0
same,drug sensitivity score,CAL-85-1 [4],0
same,drug sensitivity score,HCC1937 [6],0
same,drug sensitivity score,MCF-10A,0
same,drug sensitivity score,MDA-MB-231 [7],0
same,drug sensitivity score,MDA-MB-453 [8],0
same,drug sensitivity score,MFM-223 [9],0
S=P(N1CC1)(N1CC1)N1CC1 [Thio-TEPA],normalised viability,BT-474 [10]; 1000 nM,114%
same,normalised viability,BT-549; 1000 nM,105%
same,normalised viability,CAL-120 [11]; 1000 nM,86.7%
same,normalised viability,CAL-148 [12]; 100 nM,102%
same,normalised viability,CAL-51; 100 nM,93.7%
same,normalised viability,CAL-85-1 [13]; 100 nM,102%
same,normalised viability,DU-4475; 100 nM,102%
same,normalised viability,HCC1143 [14]; 1000 nM,88.8%
same,normalised viability,HCC1599; 1000 nM,87.4%
same,normalised viability,HCC1937 [15]; 1000 nM,123%
same,normalised viability,HDQ-P1; 100 nM,120%
same,normalised viability,Hs578T; 1000 nM,90.8%
same,normalised viability,MDA-MB-231 [16]; 1000 nM,98.2%
same,normalised viability,MDA-MB-436; 1000 nM,118%
same,normalised viability,MDA-MB-453 [17]; 100 nM,97.6%
same,normalised viability,MDA-MB-468; 1000 nM,103%
same,normalised viability,MFM-223 [18]; 1000 nM,88.4%
same,normalised viability,SK-BR-3; 1000 nM,91.1%
same,drug sensitivity score,BT-474 [1],0
same,drug sensitivity score,CAL-120 [2],0
same,drug sensitivity score,CAL-148 [3],0
same,drug sensitivity score,CAL-85-1 [4],0
same,drug sensitivity score,HCC1937 [6],0
same,drug sensitivity score,MCF-10A,0
same,drug sensitivity score,MDA-MB-231 [7],0
same,drug sensitivity score,MDA-MB-453 [8],0
same,drug sensitivity score,MFM-223 [9],0
CN(C)CCOc1ccc(/C(=C(/CCCl)c2ccccc2)c2ccccc2)cc1 [Toremifene],normalised viability,BT-474 [10]; 100 nM,126%
same,normalised viability,BT-549; 100 nM,109%
same,normalised viability,CAL-120 [11]; 100 nM,93.7%
same,normalised viability,CAL-148 [12]; 10 nM,108%
same,normalised viability,CAL-51; 10 nM,107%
same,normalised viability,CAL-85-1 [13]; 10 nM,100%
same,normalised viability,DU-4475; 10 nM,106%
same,normalised viability,HCC1143 [14]; 100 nM,109%
same,normalised viability,HCC1599; 100 nM,114%
same,normalised viability,HCC1937 [15]; 100 nM,97.5%
same,normalised viability,HDQ-P1; 10 nM,129%
same,normalised viability,Hs578T; 100 nM,85.4%
same,normalised viability,MDA-MB-231 [16]; 100 nM,94.2%
same,normalised viability,MDA-MB-436; 100 nM,110%
same,normalised viability,MDA-MB-453 [17]; 10 nM,118%
same,normalised viability,MDA-MB-468; 100 nM,106%
same,normalised viability,MFM-223 [18]; 100 nM,99.8%
same,normalised viability,SK-BR-3; 100 nM,88.8%
same,drug sensitivity score,BT-474 [1],2.47
same,drug sensitivity score,CAL-120 [2],0
same,drug sensitivity score,CAL-148 [3],0
same,drug sensitivity score,CAL-85-1 [4],0
same,drug sensitivity score,HCC1143 [5],2.33
same,drug sensitivity score,HCC1937 [6],5.17
same,drug sensitivity score,MCF-10A,0
same,drug sensitivity score,MDA-MB-453 [8],0
same,drug sensitivity score,MFM-223 [9],0
COc1cc2c(NC3CCN(C(C)C)CC3)nc(N3CCC(F)(F)CC3)nc2cc1OCCCN1CCCC1 [UNC0642],drug sensitivity score,BT-474 [1],6.46
same,drug sensitivity score,CAL-120 [2],4.13
same,drug sensitivity score,CAL-148 [3],2.77
same,drug sensitivity score,CAL-85-1 [4],6.85
same,drug sensitivity score,HCC1143 [5],0
same,drug sensitivity score,HCC1937 [6],1.95
same,drug sensitivity score,MCF-10A,2.29
same,drug sensitivity score,MDA-MB-231 [7],7.71
same,drug sensitivity score,MDA-MB-453 [8],1.18
same,drug sensitivity score,MFM-223 [9],0

# From the supplement of paper PMC4862054
